Series [1] concerns sister chromatid exchange. Also on record: method as in PMID 10719044. Conditions: at concentrations far below those impairing the proliferative activity; cited from earlier work.
The format of series [2] is in vivo, NOD/SCID mice. The conditions noted are these: 40 mg/kg/day i.p.; weighed daily during treatment. The protocol: Given the encouraging in vitro results, we next investigated whether this newly developed safety switch system (SR39h and different nucleoside analogs) could prevent tumor formation in vivo. For this purpose, 20,000 undifferentiated Ki67-SR39h-expressing hESC were transplanted into the striatum of NOD/SCID mice. […] A group of control mice received only a NaCl solution. […] Human cytoplasmic marker (HCM) staining confirmed the human (i.e., hESC-derived) origin of these tumors. Tumors cells were predominantly Ki67 positive with a rosette organization as frequently found in tumors of the central nervous system.
Supplementary Figure S3: Mice weight
Mice were weighed daily during guanosine analogs treatment to identify differences in weight gain/loss between treated groups. No differences were observed between treatment groups.
Supplementary Figure S4: in vivo validation of suicide gene. Coronal section of NOD/SCID mice 47 days after injection of hESC expressing the SR39h thymidine kinase variant. Mice were treated for 2x5 days with the respective nucleoside analogs (see Methods). Upper lane: ACV; middle lane: PCV; lower lane: GCV. Sections were colored with cresyl violet and dark purple staining reflects a high density of nuclei. Scale bar 1000 µm. […]

The subject of series [3] is hESC (HS420) expressing Ki67-wt-TK. Description: ATP-based cell survival assay, GCV-induced cell death. Conditions: Homo sapiens; 96 h GCV exposure; wt-TK under Ki67 promoter. The protocol: (§1) Our first generation of suicide gene was engineered with the wild type thymidine kinase (wt-TK). To improve the suicide gene efficacy, we investigated different TK variants; wt-TK, 30-GMK, SR39, SR39h, and SR39h D116E variants. These sequences were chosen based on the analysis of the literature investigating HSV1-TK variants, as well as a gain of function mutation in the CMV UL-97 kinase. The efficacy of each variants was determined as percentage of cell survival following prodrug treatment compared to non-treated hESC. For this purpose, we used the ATP-based assay, which measures cellular ATP content and thereby provides a reliable estimate of the number of healthy cells. […]
(§2) Figure 1 EC50 of ganciclovir (GCV) in cell expressing different thymidine kinase (TK) variants. […] Number of surviving cells was monitored using bioluminescent ATP-based assay. […]
(§3) Cell culture plate (96 wells plate Corning #3907, Corning, Lonay, Switzerland) were pre-coated with 60 μL per well of Poly-L-ornithine solution (Sigma, Merk, Eysins, Switzerland) at 37 °C for 30 min. […] For EC50 assays, the medium was changed daily for 4 days, then cell viability was assessed using an ATP-based assay. EC50 values for each construct were calculated using a four parameters equation (GraphPad, Prism8, San Diego, CA, USA). […]

Series [4] concerns hESC (HS420) expressing Ki67-30-GMK. Described as above. Conditions: Homo sapiens, 96 h, read-out: EC50 of GCV (cell survival). The protocol:
as §1, §2, §3

For orientation: EC50 means the concentration that produces a half-maximal response. For the compound `Nc1nc(O)c2ncn(COC(CO)CO)c2n1` [GCV, ganciclovir], the “Induction of sister chromatid exchange” value in series [1] is listed as “potent inducer of sister chromatid exchange”. In series [2], the “Differences in weight among groups” value is on record as “no significant differences in weight”. For the same compound, the EC50 in series [3] worked out at 96 nM; in series [4] it was 110 nM.

(Values after publication PMC8834506, “Optimization of Thymidine Kinase-Based Safety Switch for Neural Cell Therapy” (Cells, 2022).)
